In patent US20120004405A1, “COMPOUNDS HAVING ACTIVITY IN CORRECTING MUTANT CFTR CELLULAR PROCESSING” (priority 2008, published 2012):
Entries after “also recorded” stand apart in the source; their conditions may differ.

Assays:
ΔF508-CFTR [1] = target: T1, ΔF508-CFTR (Homo sapiens, UniProt P13569, DEL508-508); experiment: Iodide efflux from ΔF508-CFTR epithelial cells; type: cell-based; conditions: for iodide efflux from ΔF508-CFTR epithelial cells: iodide-loaded cells, compound added at time point 0, iodide sensitive electrode
T1 construct: Human epithelial cells containing wildtype (A) or ΔF508-CFTR (B); endogenous in cells; host or cells: CFBE14o- human epithelial cells (provided by Dr. D. C. Gruenert)
Experimental: Iodide efflux experiments were performed as described. Briefly, Cells (80-90% confluent) were incubated for 1 h in a loading buffer containing 136 mM NaI, 3 mM KNO3, 2 mM Ca(NO3)2, 11 mM glucose, and 20 mM Hepes, adjusted to pH 7.4 with NaOH. To remove extracellular iodide, cells were thoroughly washed with efflux buffer (136 mM NaNO3 replacing 136 mM NaI in the loading buffer) and then equilibrated in 2.5 ml efflux buffer for 1 min. The efflux buffer was changed at 1 min intervals over the duration of the experiment. Four minutes after anion substitution, cells were exposed to compound 1D. The amount of iodide in each 2.5 ml sample of efflux buffer was determined using an iodide-selective electrode (HNU Systems Ltd, Warrington, UK). Cells were loaded and experiments performed at room temperature.

ΔF508-CFTR [2] = target: T1, ΔF508-CFTR; experiment: Western blotting of cell surface expressed CFTR, ΔF508-CFTR epithelial cells; type: cell-based
Experimental: (§1) Human epithelial cells containing wildtype CFTR (16HBE14o-) and the mutant cell line CFBE14o- were kindly provided by Dr. D. C. Gruenert. They were grown in suspension culture in Dulbeccós medium supplemented with streptomycin/penicillin (100 units of each/ml) and 10% foetal calf serum.
(§2) The cell pellets were solubilized by vortexing in buffer (Tris-HCl 0.06 M; 2% SDS, 10% glycerol, 0.1M dithiothreitol, 0.1% bromophenol-blue and the protease inhibitor cocktail, pH 6.8). Following centrifugation (2 min, 8.000 g) samples of the supernatant were separated on 10% poly-acrylamide slabgels. Proteins were subsequently electroblotted onto nitrocellulose paper in 0.025 M Tris, 0.192 M glycine, 20% methanol. The blots were incubated at 4° C. with 0.02M Tris-HCl, 0.15M NaCl, 0.1% Tween20, pH7.5 followed by overnight incubation at 4° C. with a 1:500 dilution of primary anti-CFTR antibody in 0.02M Tris-HCl, 0.15M NaCl, 0.1% Tween20, pH7.5. Blots were washed three times, incubated with peroxidase-conjugated anti-rabbit IgG for 2 h, and washed four times. Peroxidase activity was detected with […] reagent (ECL kit; Amersham, Braunschweig, Germany) on X-ray film.

nasal epithelium = experiment: Transepithelial nasal resistance measured on the inventor; type: in vivo; conditions: human
Experimental: The effect of compound 1D was evaluated on the inventor of the present application by measurement of the transepithelial nasal resistance. This is a standard protocol for testing pharmaceutically active compounds on humans, (http://central.igc.gulbenkian.pt/cftr/vr/e/schuler_basic_protocol_for_measurement_of_transepithelial_nasal_potential_difference.pdf) (see also the results of FIG. 9).
The nasal epithelium was equilibrated with isotonic (0.9%) NaCl, 2 mM CaCl2. […] To determine the maximal possible potential differences in this experiment, the solution was changed to isotonic NaCl, 2 mM CaCl2 containing 10 μM amiloride that is known to close Na+ channels. […] After equilibration, the solution was changed to low salt with 0.09% NaCl, 0.2 mM CaCl2 containing 10 μM isoprenalol.

[3] = Alamarblue cytotoxicity assay; type: cell-based; conditions: up to concentrations of 400 μM; data not shown
Experimental: In a preferred embodiment, the present invention relates to compounds 1B, 1C, 1D 1F and 1G. […] Compound 1D is particularly preferred.
The cytotoxicity of the drugs was measured as described.

wildtype CFTR = target: T2, wildtype CFTR (Homo sapiens, UniProt P13569); experiment: Western blotting of cell surface expressed CFTR, wildtype epithelial cells; type: cell-based; conditions: increasing concentration of compound
T2 construct: Human epithelial cells containing wildtype CFTR (16HBE14o-); endogenous in cells; host or cells: 16HBE14o- human epithelial cells (provided by Dr. D. C. Gruenert)
Experimental: as §1, §2

hyaluronan exporter MRP5 = target: T3, hyaluronan exporter MRP5 (Homo sapiens, UniProt O15440); experiment: Determination of hyaluronan export from human fibroblasts (ELISA of culture medium); type: cell-based; conditions: incubated two days with increasing concentrations; hyaluronan in culture supernatant
T3 construct: tested on human fibroblasts cultures for their influence on hyaluronan exporter MRP5; endogenous in cells; host or cells: human fibroblast cultures
Experimental: (§3) The cells were incubated for 24 hours at 37° C., the media were replaced with fresh media and after additional 24 hours aliquots (5 and 20 μl) of the culture medium were used for measurement of the hyaluronan concentration in the cell culture medium by an ELISA. The wells of a 96 well Covalink-NH-microtiter plate (NUNC) were coated with 100 μl of a mixture of […] of hyaluronan (Healon®), 9.2 μg/ml of N-Hydroxysuccin-imide-3-sulfonic acid and 615 μl/ml of 1-ethyl-3-(3-dimethylaminopropyl)-carbodiimide for 2 hours at room temperature and overnight at 4° C. The wells were washed three times with 2 M NaCl, 41 mM MgSO4, 0.05% Tween-20 in 50 mM phosphate buffered saline pH 7.2 (buffer A) and once with 2 M NaCl, 41 mM MgSO4, in phosphate buffered saline pH 7.2. Additional binding sites were blocked by incubation with 300 μl of 0.5% bovine serum albumin in phosphate buffered saline for 30 min at 37° C. Calibration of the assay was performed with standard concentrations of hyaluronan ranging from 15 ng/ml to 6000 ng/ml in equal volumes of culture medium as used for measurement of the cellular supernatants. […] The adsorption was read at 490 nm. The concentrations in the samples were calculated from a logarithmic regression curve of the hyaluronan standard solutions.

[4] = system: mutant CFBE14o- cells (ΔF508-CFTR); experiment: Transepithelial resistance of mutant CFBE14o- epithelial cells; type: cell-based, human
Experimental: as §1
A cell monolayer on a thin filter membrane (growth area, 4.2 cm2; pore diameter, 0.4 μm; thickness, 20 μm; Falcon, Heidelberg, Germany) served as a test barrier for the invasive capabilities of malignant cells. When confluent, these cells from a tight epithelial sheet with a high trans-epithelial electrical resistance (TEER), which was measured continuously using a STX-2 electrode (WPI, Sarasota, USA). Permeabilization of the epithelial cell layer (MDCK-C7 cells) due to the invasive activity of the melanoma cells can be determined by trans-epithelial electrical resistance (TEER) measurements, as previously reported [24;25].

CFTR = target: T4, CFTR (Mus musculus, UniProt P26361); experiment: Hyaluronan export through CFTR in a mouse fibroblasts cell line; type: cell-based
T4 construct: endogenous in cells
Experimental: as §3

[5] = system: wildtype HBE14o- cells (normal CFTR); experiment: Transepithelial resistance of wildtype HBE14o- epithelial cells; type: cell-based, human

T1 sequence (P13569 with tags, fused parts or gaps DEL508-508): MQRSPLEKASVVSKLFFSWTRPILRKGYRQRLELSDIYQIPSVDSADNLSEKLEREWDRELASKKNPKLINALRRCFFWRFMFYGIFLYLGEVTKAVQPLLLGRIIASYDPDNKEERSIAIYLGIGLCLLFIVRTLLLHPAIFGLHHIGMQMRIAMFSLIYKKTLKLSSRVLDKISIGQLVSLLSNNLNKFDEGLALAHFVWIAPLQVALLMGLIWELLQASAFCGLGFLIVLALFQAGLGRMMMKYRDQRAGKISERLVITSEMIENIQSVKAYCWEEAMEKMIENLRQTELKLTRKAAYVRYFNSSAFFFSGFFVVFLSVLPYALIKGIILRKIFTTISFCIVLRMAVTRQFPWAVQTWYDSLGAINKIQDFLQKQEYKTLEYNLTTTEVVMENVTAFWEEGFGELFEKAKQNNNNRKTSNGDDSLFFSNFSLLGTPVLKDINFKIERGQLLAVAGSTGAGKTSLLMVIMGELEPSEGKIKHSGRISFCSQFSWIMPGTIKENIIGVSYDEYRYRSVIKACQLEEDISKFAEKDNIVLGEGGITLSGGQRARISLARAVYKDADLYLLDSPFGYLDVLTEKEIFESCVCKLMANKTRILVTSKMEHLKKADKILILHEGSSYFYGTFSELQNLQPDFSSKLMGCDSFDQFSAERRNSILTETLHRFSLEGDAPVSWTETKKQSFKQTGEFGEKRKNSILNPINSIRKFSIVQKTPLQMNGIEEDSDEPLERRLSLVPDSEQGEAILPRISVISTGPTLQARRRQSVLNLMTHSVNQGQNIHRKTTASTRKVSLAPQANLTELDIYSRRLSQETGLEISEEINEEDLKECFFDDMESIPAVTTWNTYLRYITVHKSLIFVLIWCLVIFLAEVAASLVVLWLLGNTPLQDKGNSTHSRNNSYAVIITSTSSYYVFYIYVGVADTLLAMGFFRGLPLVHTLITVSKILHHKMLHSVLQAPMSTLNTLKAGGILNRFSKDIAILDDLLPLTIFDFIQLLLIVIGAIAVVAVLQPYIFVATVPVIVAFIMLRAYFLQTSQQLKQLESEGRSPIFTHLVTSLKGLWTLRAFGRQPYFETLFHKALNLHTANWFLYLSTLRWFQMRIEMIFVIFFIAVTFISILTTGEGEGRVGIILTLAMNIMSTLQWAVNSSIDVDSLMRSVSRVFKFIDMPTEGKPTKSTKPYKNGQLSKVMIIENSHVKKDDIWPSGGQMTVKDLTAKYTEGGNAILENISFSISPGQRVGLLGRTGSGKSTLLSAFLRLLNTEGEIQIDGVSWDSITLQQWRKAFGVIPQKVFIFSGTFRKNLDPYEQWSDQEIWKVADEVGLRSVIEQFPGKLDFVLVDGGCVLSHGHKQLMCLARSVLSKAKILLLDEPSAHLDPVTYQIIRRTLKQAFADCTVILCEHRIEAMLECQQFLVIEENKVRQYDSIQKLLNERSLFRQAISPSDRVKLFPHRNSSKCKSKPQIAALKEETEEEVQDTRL
T3 sequence (O15440 whole entry): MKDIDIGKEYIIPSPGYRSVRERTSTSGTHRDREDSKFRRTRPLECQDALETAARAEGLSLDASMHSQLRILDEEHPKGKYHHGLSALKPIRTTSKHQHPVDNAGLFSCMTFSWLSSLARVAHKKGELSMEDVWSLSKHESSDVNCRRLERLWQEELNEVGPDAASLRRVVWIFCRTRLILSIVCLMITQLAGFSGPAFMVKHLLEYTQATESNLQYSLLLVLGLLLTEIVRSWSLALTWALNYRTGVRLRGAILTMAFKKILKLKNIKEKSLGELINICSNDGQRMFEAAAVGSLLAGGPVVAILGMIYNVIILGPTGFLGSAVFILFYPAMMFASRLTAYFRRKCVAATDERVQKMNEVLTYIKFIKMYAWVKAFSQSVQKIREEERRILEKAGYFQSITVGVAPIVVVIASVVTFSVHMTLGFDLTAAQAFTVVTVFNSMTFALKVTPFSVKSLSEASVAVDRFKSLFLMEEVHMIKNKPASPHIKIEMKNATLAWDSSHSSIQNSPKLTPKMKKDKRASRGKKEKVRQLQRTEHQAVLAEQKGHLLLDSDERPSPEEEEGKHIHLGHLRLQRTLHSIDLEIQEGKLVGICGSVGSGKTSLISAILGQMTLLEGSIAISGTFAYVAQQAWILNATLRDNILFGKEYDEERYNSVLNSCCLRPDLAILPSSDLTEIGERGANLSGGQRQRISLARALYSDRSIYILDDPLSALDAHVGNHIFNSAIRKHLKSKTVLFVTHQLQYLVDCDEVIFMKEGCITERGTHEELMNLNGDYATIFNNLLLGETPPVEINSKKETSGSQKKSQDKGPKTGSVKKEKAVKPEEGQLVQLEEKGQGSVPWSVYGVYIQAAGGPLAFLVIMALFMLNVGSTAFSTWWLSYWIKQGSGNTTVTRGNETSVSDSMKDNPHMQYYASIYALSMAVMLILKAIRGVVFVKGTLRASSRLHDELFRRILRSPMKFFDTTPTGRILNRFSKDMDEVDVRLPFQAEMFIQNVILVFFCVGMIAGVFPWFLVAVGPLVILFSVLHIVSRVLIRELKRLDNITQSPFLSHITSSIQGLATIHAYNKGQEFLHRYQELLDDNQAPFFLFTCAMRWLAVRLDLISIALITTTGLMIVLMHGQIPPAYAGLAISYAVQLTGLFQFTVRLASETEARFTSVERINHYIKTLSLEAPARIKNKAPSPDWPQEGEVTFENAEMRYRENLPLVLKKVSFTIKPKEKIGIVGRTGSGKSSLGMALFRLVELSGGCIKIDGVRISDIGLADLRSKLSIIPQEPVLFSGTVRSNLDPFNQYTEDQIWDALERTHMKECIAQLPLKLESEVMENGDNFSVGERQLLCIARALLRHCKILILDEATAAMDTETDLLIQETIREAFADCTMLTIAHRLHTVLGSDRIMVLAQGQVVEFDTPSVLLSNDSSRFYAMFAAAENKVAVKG
T2 sequence (P13569 whole entry): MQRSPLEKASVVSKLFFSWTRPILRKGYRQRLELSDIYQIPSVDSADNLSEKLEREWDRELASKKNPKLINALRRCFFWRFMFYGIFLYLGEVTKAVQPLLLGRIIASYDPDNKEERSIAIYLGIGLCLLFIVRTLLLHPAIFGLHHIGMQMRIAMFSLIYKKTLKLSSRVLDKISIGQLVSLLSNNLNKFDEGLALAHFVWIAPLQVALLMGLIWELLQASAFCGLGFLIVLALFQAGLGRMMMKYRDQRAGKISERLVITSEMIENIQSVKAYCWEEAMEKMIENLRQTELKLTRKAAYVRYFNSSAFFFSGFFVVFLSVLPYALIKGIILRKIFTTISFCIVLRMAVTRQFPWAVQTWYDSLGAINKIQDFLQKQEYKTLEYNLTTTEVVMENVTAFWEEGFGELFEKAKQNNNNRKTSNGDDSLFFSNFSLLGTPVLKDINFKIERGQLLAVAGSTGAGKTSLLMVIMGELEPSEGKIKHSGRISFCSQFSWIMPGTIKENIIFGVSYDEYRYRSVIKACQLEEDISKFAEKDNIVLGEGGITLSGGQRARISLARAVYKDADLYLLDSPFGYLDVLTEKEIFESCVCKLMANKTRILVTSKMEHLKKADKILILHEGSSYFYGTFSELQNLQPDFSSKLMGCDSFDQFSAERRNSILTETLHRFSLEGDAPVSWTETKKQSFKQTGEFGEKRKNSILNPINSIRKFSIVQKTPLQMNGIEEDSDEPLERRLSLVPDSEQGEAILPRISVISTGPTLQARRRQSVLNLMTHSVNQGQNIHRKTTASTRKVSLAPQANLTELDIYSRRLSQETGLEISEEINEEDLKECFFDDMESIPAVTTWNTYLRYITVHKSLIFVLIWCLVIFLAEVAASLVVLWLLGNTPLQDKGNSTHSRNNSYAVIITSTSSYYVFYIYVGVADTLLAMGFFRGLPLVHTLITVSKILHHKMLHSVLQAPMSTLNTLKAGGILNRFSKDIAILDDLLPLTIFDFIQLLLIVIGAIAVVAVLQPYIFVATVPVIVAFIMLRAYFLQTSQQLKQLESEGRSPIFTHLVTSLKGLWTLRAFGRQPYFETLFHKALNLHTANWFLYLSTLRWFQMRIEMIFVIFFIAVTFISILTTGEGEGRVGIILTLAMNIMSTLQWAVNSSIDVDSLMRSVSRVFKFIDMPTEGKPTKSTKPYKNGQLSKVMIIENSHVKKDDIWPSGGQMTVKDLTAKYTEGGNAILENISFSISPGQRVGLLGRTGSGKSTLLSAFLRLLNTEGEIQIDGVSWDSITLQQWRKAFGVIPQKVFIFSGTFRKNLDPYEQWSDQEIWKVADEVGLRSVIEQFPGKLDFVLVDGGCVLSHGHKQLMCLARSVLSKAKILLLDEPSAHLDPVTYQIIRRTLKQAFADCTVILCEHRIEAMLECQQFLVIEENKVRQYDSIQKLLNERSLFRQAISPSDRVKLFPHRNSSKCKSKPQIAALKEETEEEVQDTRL

Q: Which “effect on D4 activation of iodide efflux through F508-CFTR” value (ΔF508-CFTR [1]; simultaneous addition with D4) does the source give for `O=C(O)c1ccc(/C=C2\SC(=S)N(c3cccc(C(F)(F)F)c3)C2=O)cc1` [CFTR172, reference compound] here?
A: Its value is “reduces the activation”.

Q: Which “iodide efflux from ΔF508-CFTR epithelial cells” value (ΔF508-CFTR [1]) does the source give for `CC(=O)Nc1c(O)cccc1Oc1ccccc1C(=O)O` [Compound 1B, 2-(2-acetamido-3-hydroxyphenoxy)benzoic acid] here?
A: Its value is “stimulates iodide efflux”.

Q: For `CC(=O)Nc1c(O)cc(O)cc1Oc1ccc(N)cc1C(=O)O` [Compound 1D, 2-(2-acetamido-3,5-dihydroxyphenoxy)-5-aminobenzoic acid], which “concentration at which increase of membrane expression on ΔF508-CFTR epithelial cells was observed” value (ΔF508-CFTR [2]; Western blotting) is on record?
A: The value was 100 µM.

Q: And the “expression of ΔF508-CFTR on the cell surface / plasma membrane (Western blotting)” value (ΔF508-CFTR [2]; human epithelial cells, increasing concentration of compound)?
A: Its value is “recruited to the plasma membrane; also recorded: enhanced; also recorded: restored plasma membrane expression”.

Q: And the transepithelial nasal resistance (nasal epithelium; 100 μM in isotonic NaCl, 2 mM CaCl2, after a transient increase)?
A: Its transepithelial nasal resistance is “decreased below the equilibrating solution”.

Q: And the “reversibility of the effect on transepithelial nasal resistance” value (nasal epithelium; wash out)?
A: Its value is “reversible”.

Q: What about the “toxicity (Alamarblue assay)” value [3] of the same molecule?
A: Its value is “not toxic”.

Q: And the “expression of wildtype CFTR on the cell surface (Western blotting)” value (wildtype CFTR)?
A: The value was “slightly decreased”.

Q: What about the “activation of hyaluronan export from human fibroblasts” value (hyaluronan exporter MRP5) of the same molecule?
A: The value was “most active; also recorded: most activating”.

Q: And the “transepithelial resistance of ΔF508-CFTR epithelial cells over a longer time period” value ([4]; 100 μM)?
A: Its value is “increase in transepithelial resistance; also recorded: long lasting rescue of ΔF508-CFTR”.

Q: And the “transepithelial resistance of epithelial cells containing F508-CFTR” value ([4]; FIG. 10, compared to 8-Bromo-cAMP and control)?
A: Its value is “resistance increases”.

Q: And the “TER of F508-CFTR cells over a period of 90 hours” value ([4]; FIG. 12, versus control without any treatment)?
A: Its value is “drops below the control”.

Q: And the “hyaluronan export through CFTR” value (CFTR)?
A: The value was “activated”.

Q: What about the “transepithelial resistance of epithelial cells containing normal CFTR, immediate effect” value ([5]; FIG. 10) of the same molecule?
A: The value was “drops immediately”.

Q: And the “TER of normal cells over a period of 90 hours” value ([5]; FIG. 12)?
A: The value was “reduce the TER”.

Q: And the “iodide efflux from ΔF508-CFTR epithelial cells” value (ΔF508-CFTR [1])?
A: Its value is “stimulated a sudden burst of iodide efflux”.

Q: And the “iodide efflux from ΔF508-CFTR epithelial cells” value (ΔF508-CFTR [1]; listed as D4)?
A: The value was “channels immediately open”.

Q: Which transepithelial nasal resistance (nasal epithelium; 10 μM in isotonic NaCl, 2 mM CaCl2) does the source give for `N=C(N)NC(=O)c1nc(Cl)c(N)nc1N` [amiloride, reference compound] here?
A: The transepithelial nasal resistance was “increased to a maximal valued”.

Q: For `CC(C)NCC(O)c1ccc(O)c(O)c1` (stereo not shown) [isoprenalol, reference compound], which transepithelial nasal resistance (nasal epithelium; 10 μM in low salt 0.09% NaCl, 0.2 mM CaCl2) is on record?
A: Its transepithelial nasal resistance is “maximal drop of the transepithelial resistance”.
